# Measured values reported in US9611221B2, “Histone demethylase inhibitors” (CELGENE QUANTICEL RESEARCH, INC., priority 2012, dated 2017).
# Target: Jarid1A (Homo sapiens (Human), UniProt P29375)
# Test: Jarid1A in vitro enzyme inhibition assay (TR-FRET)
# Assay type: biochemical
# Settings: 1 nM Jarid1A, 300 nM H3K4me3-biotin peptide, 2 μM alpha-ketoglutaric acid
# Text: (§1) This assay determines the ability of a test compound to inhibit Jarid1A, Jarid1B, and JMJD2C demethylase activity. Baculovirus expressed Jarid1A (GenBank Accession #NM_001042603, AA1-1090) was purchased from BPS Bioscience (Cat#50110). Baculovirus expressed Jarid1B (GenBank Accession #NM_006618, AA 2-751) was purchased from BPS Bioscience (Cat #50121) or custom made by MolecularThroughput. Baculovirus expressed JMJD2C (GenBank Accession #BC143571, AA 2-372) was purchased from BPS Bioscience (Cat#50105).
# (§2) The enzymatic assay of Jarid1A activity is based upon Time Resolved-Fluorescence Resonance Energy Transfer (TR-FRET) detection. The ability of test compounds to inhibit the activity of Jarid1A was determined in 384-well plate format under the following reaction conditions: 1 nM Jarid1A, 300 nM H3K4me3-biotin labeled peptide (Anaspec cat #64357), 2 μM alpha-ketoglutaric acid in assay buffer of 50 mM HEPES, pH7.3, 0.005% Brij35, 0.5 mM TCEP, 0.2 mg/ml BSA, 50 μM sodium L-ascorbate, and 2 μM ammonium iron(II) sulfate. Reaction product was determined quantitatively by TR-FRET after the addition of detection reagent Phycolink Streptavidin-allophycocyanin (Prozyme) and Europium-anti-mono- or di-methylated histone H3 lysine 4 (H3K4me1-2) antibody (PerkinElmer) in the presence of 5 mM EDTA in LANCE detection buffer (PerkinElmer) at a final concentration of 25 nM and 1 nM, respectively.
# (§3) The reaction mixture was incubated at room temperature for 30 minutes, and terminated by the addition of 6 μl of 5 mM EDTA in LANCE detection buffer containing 50 nM Phycolink Streptavidin-allophycocyanin and 2 nM Europium-anti-H3K4me1-2 antibody. Plates were read by EnVisionMultilabel Reader in TR-FRET mode (excitation at 320 nm, emission at 615 nm and 665 nm) after 1 hour incubation at room temperature. A ratio was calculated (665/615) for each well and fitted to determine inhibition constant (IC50).
# Sequence of Jarid1A (P29375 1-1090): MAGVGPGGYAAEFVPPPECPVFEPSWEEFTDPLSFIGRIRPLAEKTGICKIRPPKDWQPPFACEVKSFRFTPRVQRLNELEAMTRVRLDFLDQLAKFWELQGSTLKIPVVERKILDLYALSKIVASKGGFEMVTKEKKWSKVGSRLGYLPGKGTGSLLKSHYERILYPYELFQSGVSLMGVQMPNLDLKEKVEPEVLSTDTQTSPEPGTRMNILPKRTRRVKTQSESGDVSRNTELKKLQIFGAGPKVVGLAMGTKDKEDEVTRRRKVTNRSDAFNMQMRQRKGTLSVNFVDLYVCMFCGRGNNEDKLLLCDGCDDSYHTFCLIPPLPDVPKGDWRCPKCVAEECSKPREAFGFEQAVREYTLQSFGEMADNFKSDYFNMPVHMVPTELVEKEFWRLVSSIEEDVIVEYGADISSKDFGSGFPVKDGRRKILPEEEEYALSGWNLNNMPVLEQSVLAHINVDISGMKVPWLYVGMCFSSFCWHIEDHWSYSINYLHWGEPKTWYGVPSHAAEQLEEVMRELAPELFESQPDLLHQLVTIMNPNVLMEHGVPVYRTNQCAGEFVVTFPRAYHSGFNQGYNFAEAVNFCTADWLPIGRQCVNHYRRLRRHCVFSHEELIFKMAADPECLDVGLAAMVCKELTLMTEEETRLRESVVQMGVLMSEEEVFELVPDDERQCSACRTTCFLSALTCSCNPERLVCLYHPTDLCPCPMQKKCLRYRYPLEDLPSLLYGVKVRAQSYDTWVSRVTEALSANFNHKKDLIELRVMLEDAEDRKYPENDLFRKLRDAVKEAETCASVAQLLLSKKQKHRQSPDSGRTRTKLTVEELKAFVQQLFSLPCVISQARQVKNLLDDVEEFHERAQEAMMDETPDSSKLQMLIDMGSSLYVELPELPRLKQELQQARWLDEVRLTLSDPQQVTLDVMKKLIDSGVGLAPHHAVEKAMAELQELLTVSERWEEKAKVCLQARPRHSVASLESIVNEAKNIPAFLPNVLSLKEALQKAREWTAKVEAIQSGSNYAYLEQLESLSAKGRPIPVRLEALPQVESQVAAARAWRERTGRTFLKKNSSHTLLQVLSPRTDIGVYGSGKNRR
row,IC50 [nM],SMILES
1,≤ 100,"O=C(O)c1ccncc1NCc1ccc(F)cc1 [Example 4, 3-[(4-fluorobenzyl)amino]pyridine-4-carboxylic acid]"
2,≤ 100,"N#Cc1ccc(CNc2cnccc2C(=O)O)cc1 [Example 5, 3-[(4-cyanobenzyl)amino]pyridine-4-carboxylic acid]"
3,≤ 100,"O=C(O)c1ccncc1NCc1ccc(C(F)(F)F)cc1 [Example 8, 3-{[4-(trifluoromethyl)benzyl]amino}pyridine-4-carboxylic acid]"
4,≤ 100,"Nc1ccccc1CNc1cnccc1C(=O)O [Example 22, 3-[(2-aminobenzyl)amino]pyridine-4-carboxylic acid]"
5,≤ 100,"O=C(O)c1ccncc1NCc1ccc(Br)cc1 [Example 23, 3-[(4-bromobenzyl)amino]pyridine-4-carboxylic acid]"
6,≤ 100,"Cc1ccc(CNc2cnccc2C(=O)O)cc1 [Example 24, 3-[(4-methylbenzyl)amino]pyridine-4-carboxylic acid]"
7,≤ 100,"O=C(O)c1ccncc1NCc1ccc(C2CC2)cc1 [Example 25, 3-[(4-cyclopropylbenzyl)amino]pyridine-4-carboxylic acid]"
8,≤ 100,"O=C(O)c1ccncc1NCc1cccc2cc[nH]c12 [Example 29, 3-[(1H-indol-7-ylmethyl)amino]pyridine-4-carboxylic acid]"

# Continued, compound first:
row,SMILES,IC50 [nM]
1,"O=C(O)c1ccnnc1NCc1ccccc1 [Example 1, 3-(benzylamino)pyridazine-4-carboxylic acid]",≤ 100
2,"O=C(O)c1ccncc1NCc1ccc(Cl)cc1Cl [Example 18, 3-[(2,4-dichlorobenzyl)amino]pyridine-4-carboxylic acid]",≤ 100
3,"COc1cc(Cl)ccc1CNc1cnccc1C(=O)O [Example 20, 3-[(4-chloro-2-methoxybenzyl)amino]pyridine-4-carboxylic acid]",≤ 100
4,"O=C(O)c1ccncc1NCc1ccc(Cl)cc1O [Example 21, 3-[(4-chloro-2-hydroxybenzyl)amino]pyridine-4-carboxylic acid]",≤ 100
5,"O=C(O)c1ccncc1NCc1ccc(Cl)cc1C1CC1 [Example 26, 3-[(4-chloro-2-cyclopropylbenzyl)amino]pyridine-4-carboxylic acid]",≤ 100
6,"O=C(O)c1ccncc1NCc1ccc(C(F)(F)F)cc1C1CC1 [Example 27, 3-{[2-cyclopropyl-4-(trifluoromethl)benzyl]amino}pyridine-4-carboxylic acid]",≤ 100
7,"O=C(O)c1ccncc1NCc1cccc2ccccc12 [Example 28, 3-[(naphthalene-1-ylmethyl)amino]pyridine-4-carboxylic acid]",≤ 100
8,"Cc1cccc(CNc2cnccc2C(=O)O)c1C1CC1 [Example 30, 3-[(2-cyclopropyl-3-methylbenzyl)amino]pyridine-4-carboxylic acid]",≤ 100

# Target: Jarid1B (Homo sapiens (Human), UniProt Q9UGL1)
# Test: Jarid1B in vitro enzyme inhibition assay (TR-FRET)
# Assay type: biochemical
# Settings: 0.8 nM Jarid1B, 300 nM H3K4me3-biotin peptide, 2 μM alpha-ketoglutaric acid
# Text: as §1
# as §2, with “The” for “The enzymatic assay of Jarid1A activity is based upon Time Resolved-Fluorescence Resonance Energy Transfer (TR-FRET) detection. The”, “of Jarid1B” for “of Jarid1A”, “conditions: 0.8” for “conditions: 1”, “nM Jarid1B,” for “nM Jarid1A,”
# as §3
# Sequence of Jarid1B (Q9UGL1 2-751): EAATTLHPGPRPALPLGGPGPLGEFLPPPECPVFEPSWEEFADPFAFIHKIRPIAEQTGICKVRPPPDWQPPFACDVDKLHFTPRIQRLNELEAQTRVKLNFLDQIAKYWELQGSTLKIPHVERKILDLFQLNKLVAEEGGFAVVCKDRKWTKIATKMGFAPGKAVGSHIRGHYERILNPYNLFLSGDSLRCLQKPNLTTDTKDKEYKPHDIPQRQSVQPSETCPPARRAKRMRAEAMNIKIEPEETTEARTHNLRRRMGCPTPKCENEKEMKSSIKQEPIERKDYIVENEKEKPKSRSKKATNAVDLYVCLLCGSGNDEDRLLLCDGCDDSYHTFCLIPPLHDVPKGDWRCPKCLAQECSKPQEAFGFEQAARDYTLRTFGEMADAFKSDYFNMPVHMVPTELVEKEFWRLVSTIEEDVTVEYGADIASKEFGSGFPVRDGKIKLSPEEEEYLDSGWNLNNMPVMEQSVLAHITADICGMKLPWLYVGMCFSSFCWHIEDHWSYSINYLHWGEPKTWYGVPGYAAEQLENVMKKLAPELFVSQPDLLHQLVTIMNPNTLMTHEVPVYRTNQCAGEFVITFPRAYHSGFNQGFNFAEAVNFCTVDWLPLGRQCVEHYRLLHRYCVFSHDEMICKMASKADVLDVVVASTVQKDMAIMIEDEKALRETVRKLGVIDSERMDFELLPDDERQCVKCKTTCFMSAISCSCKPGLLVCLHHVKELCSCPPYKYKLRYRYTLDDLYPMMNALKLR
row,IC50 [nM],SMILES
1,≤ 100,"O=C(O)c1ccncc1NCc1ccc(F)cc1 [Example 4, 3-[(4-fluorobenzyl)amino]pyridine-4-carboxylic acid]"
2,≤ 100,"N#Cc1ccc(CNc2cnccc2C(=O)O)cc1 [Example 5, 3-[(4-cyanobenzyl)amino]pyridine-4-carboxylic acid]"
3,≤ 100,"O=C(O)c1ccncc1NCc1ccc(C(F)(F)F)cc1 [Example 8, 3-{[4-(trifluoromethyl)benzyl]amino}pyridine-4-carboxylic acid]"
4,≤ 100,"Nc1ccccc1CNc1cnccc1C(=O)O [Example 22, 3-[(2-aminobenzyl)amino]pyridine-4-carboxylic acid]"
5,≤ 100,"O=C(O)c1ccncc1NCc1ccc(Br)cc1 [Example 23, 3-[(4-bromobenzyl)amino]pyridine-4-carboxylic acid]"
6,≤ 100,"Cc1ccc(CNc2cnccc2C(=O)O)cc1 [Example 24, 3-[(4-methylbenzyl)amino]pyridine-4-carboxylic acid]"
7,≤ 100,"O=C(O)c1ccncc1NCc1ccc(C2CC2)cc1 [Example 25, 3-[(4-cyclopropylbenzyl)amino]pyridine-4-carboxylic acid]"
8,≤ 100,"O=C(O)c1ccncc1NCc1cccc2cc[nH]c12 [Example 29, 3-[(1H-indol-7-ylmethyl)amino]pyridine-4-carboxylic acid]"

# The remaining lines, values behind:
row,SMILES,IC50 [nM]
1,"O=C(O)c1ccnnc1NCc1ccccc1 [Example 1, 3-(benzylamino)pyridazine-4-carboxylic acid]",100 to 1000
2,"O=C(O)c1ccncc1NCc1ccc(Cl)cc1Cl [Example 18, 3-[(2,4-dichlorobenzyl)amino]pyridine-4-carboxylic acid]",≤ 100
3,"COc1cc(Cl)ccc1CNc1cnccc1C(=O)O [Example 20, 3-[(4-chloro-2-methoxybenzyl)amino]pyridine-4-carboxylic acid]",≤ 100
4,"O=C(O)c1ccncc1NCc1ccc(Cl)cc1O [Example 21, 3-[(4-chloro-2-hydroxybenzyl)amino]pyridine-4-carboxylic acid]",≤ 100
5,"O=C(O)c1ccncc1NCc1ccc(Cl)cc1C1CC1 [Example 26, 3-[(4-chloro-2-cyclopropylbenzyl)amino]pyridine-4-carboxylic acid]",≤ 100
6,"O=C(O)c1ccncc1NCc1ccc(C(F)(F)F)cc1C1CC1 [Example 27, 3-{[2-cyclopropyl-4-(trifluoromethl)benzyl]amino}pyridine-4-carboxylic acid]",≤ 100
7,"O=C(O)c1ccncc1NCc1cccc2ccccc12 [Example 28, 3-[(naphthalene-1-ylmethyl)amino]pyridine-4-carboxylic acid]",≤ 100
8,"Cc1cccc(CNc2cnccc2C(=O)O)c1C1CC1 [Example 30, 3-[(2-cyclopropyl-3-methylbenzyl)amino]pyridine-4-carboxylic acid]",≤ 100

# Target: JMJD2C (Homo sapiens (Human), UniProt Q9H3R0)
# Test: JMJD2C in vitro enzyme inhibition assay (TR-FRET)
# Assay type: biochemical
# Settings: 0.3 nM JMJD2C, 300 nM H3K9me3-biotin peptide, 2 μM alpha-ketoglutaric acid
# Text: as §1
# The ability of test compounds to inhibit the activity of JMJD2C was determined in 384-well plate format under the following reaction conditions: 0.3 nM JMJD2C, 300 nM H3K9me3-biotin labeled peptide (Anaspec cat #64360), 2 μM alpha-ketoglutaric acid in assay buffer of 50 mM HEPES, pH7.3, 0.005% Brij35, 0.5 mM TCEP, 0.2 mg/ml BSA, 50 μM sodium L-ascorbate, and 2 μM ammonium iron(II) sulfate. Reaction product was determined quantitatively by TR-FRET after the addition of detection reagent Phycolink Streptavidin-allophycocyanin (Prozyme) and Europium-anti-di-methylated histone H3 lysine 9 (H3K9me2) antibody (PerkinElmer) in the presence of 5 mM EDTA in LANCE detection buffer (PerkinElmer) at a final concentration of 50 nM and 1 nM, respectively.
# as §3, with “containing 100” for “containing 50”, “nM Europium-anti-H3K9me2” for “nM Europium-anti-H3K4me1-2”
# Sequence of JMJD2C (Q9H3R0 2-372): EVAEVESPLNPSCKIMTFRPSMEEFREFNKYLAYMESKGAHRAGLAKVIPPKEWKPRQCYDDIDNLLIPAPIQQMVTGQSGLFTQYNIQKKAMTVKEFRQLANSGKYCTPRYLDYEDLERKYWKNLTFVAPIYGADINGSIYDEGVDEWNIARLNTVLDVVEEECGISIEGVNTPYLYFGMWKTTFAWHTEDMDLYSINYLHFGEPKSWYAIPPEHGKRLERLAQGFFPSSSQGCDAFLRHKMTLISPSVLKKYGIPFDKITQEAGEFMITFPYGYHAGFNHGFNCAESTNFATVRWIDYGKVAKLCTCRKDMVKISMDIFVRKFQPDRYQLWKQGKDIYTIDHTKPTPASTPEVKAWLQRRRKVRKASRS
row,IC50 [nM],SMILES
1,≤ 100,"O=C(O)c1ccncc1NCc1ccc(F)cc1 [Example 4, 3-[(4-fluorobenzyl)amino]pyridine-4-carboxylic acid]"
2,≤ 100,"N#Cc1ccc(CNc2cnccc2C(=O)O)cc1 [Example 5, 3-[(4-cyanobenzyl)amino]pyridine-4-carboxylic acid]"
3,≤ 100,"O=C(O)c1ccncc1NCc1ccc(C(F)(F)F)cc1 [Example 8, 3-{[4-(trifluoromethyl)benzyl]amino}pyridine-4-carboxylic acid]"
4,≤ 100,"Nc1ccccc1CNc1cnccc1C(=O)O [Example 22, 3-[(2-aminobenzyl)amino]pyridine-4-carboxylic acid]"
5,≤ 100,"O=C(O)c1ccncc1NCc1ccc(Br)cc1 [Example 23, 3-[(4-bromobenzyl)amino]pyridine-4-carboxylic acid]"
6,≤ 100,"Cc1ccc(CNc2cnccc2C(=O)O)cc1 [Example 24, 3-[(4-methylbenzyl)amino]pyridine-4-carboxylic acid]"
7,100 to 1000,"O=C(O)c1ccncc1NCc1ccc(C2CC2)cc1 [Example 25, 3-[(4-cyclopropylbenzyl)amino]pyridine-4-carboxylic acid]"
8,≤ 100,"O=C(O)c1ccncc1NCc1cccc2cc[nH]c12 [Example 29, 3-[(1H-indol-7-ylmethyl)amino]pyridine-4-carboxylic acid]"

# The remaining lines, values behind:
row,SMILES,IC50 [nM]
1,"O=C(O)c1ccnnc1NCc1ccccc1 [Example 1, 3-(benzylamino)pyridazine-4-carboxylic acid]",≤ 100
2,"O=C(O)c1ccncc1NCc1ccc(Cl)cc1Cl [Example 18, 3-[(2,4-dichlorobenzyl)amino]pyridine-4-carboxylic acid]",≤ 100
3,"COc1cc(Cl)ccc1CNc1cnccc1C(=O)O [Example 20, 3-[(4-chloro-2-methoxybenzyl)amino]pyridine-4-carboxylic acid]",100 to 1000
4,"O=C(O)c1ccncc1NCc1ccc(Cl)cc1O [Example 21, 3-[(4-chloro-2-hydroxybenzyl)amino]pyridine-4-carboxylic acid]",≤ 100
5,"O=C(O)c1ccncc1NCc1ccc(Cl)cc1C1CC1 [Example 26, 3-[(4-chloro-2-cyclopropylbenzyl)amino]pyridine-4-carboxylic acid]",100 to 1000
6,"O=C(O)c1ccncc1NCc1ccc(C(F)(F)F)cc1C1CC1 [Example 27, 3-{[2-cyclopropyl-4-(trifluoromethl)benzyl]amino}pyridine-4-carboxylic acid]",100 to 1000
7,"O=C(O)c1ccncc1NCc1cccc2ccccc12 [Example 28, 3-[(naphthalene-1-ylmethyl)amino]pyridine-4-carboxylic acid]",≤ 100
8,"Cc1cccc(CNc2cnccc2C(=O)O)c1C1CC1 [Example 30, 3-[(2-cyclopropyl-3-methylbenzyl)amino]pyridine-4-carboxylic acid]",≤ 100
